Results from PMC10066365, “Nemacol is a small molecule inhibitor of C. elegans vesicular acetylcholine transporter with anthelmintic potential” (Nature Communications, 2023).
Values joined by “and” are separate entries in the source; they are usually repeats but may differ in a detail not shown here. Equal values may be shown once.

Tested on: C. elegans
Assay: C. elegans motor phenotype scoring on solid media (Punc/jerky-unc, coiled, paralyzed), wild-type young adults
Type: in vivo, Caenorhabditis elegans
Conditions: for atypical locomotion (number of animals) / coiled (number of animals) / no phene (number of animals) / paralyzed (number of animals): young adults, 20 animals per trial, single replicate counts; for Fraction Coiled / Fraction Jerky-Unc / Fraction No Phenotype / Fraction Parayzed / Fraction Coiled, Averages of 3 biological repeats / Fraction Jerky-Unc, Averages of 3 biological repeats / Fraction No Phenotype, Averages of 3 biological repeats / Fraction Parayzed, Averages of 3 biological repeats / C1 (loose coil) worm count / C2 (tight coil) worm count / J (jerky-unc) worm count / NP (no phene) worm count / P (paralyzed) worm count: 60 min; for rep 1 atypical locomotion / rep 1 coiled / rep 1 no phene / rep 1 paralyzed: N2, count of 20 animals
[1] = 15 µM, N2 adult worms, Averages of 3 biological repeats
[2] = 15 µM, N2 adult worms, Bio Rep 1
[3] = 15 µM, N2 adult worms, Bio Rep 3
[4] = 15 µM, N2 adult worms, Bio rep 2
[5] = 30 µM, N2 adult worms, Averages of 3 biological repeats
[6] = 30 µM, N2 adult worms, Bio Rep 1
[7] = 30 µM, N2 adult worms, Bio Rep 3
[8] = 30 µM, N2 adult worms, Bio rep 2
[9] = 60 µM, N2 adult worms, Averages of 3 biological repeats
[10] = 60 µM, N2 adult worms, Bio Rep 1
[11] = 60 µM, N2 adult worms, Bio Rep 3
[12] = 60 µM, N2 adult worms, Bio rep 2
[13] = N2, 15 µM, adult worms, average of 3 biological repeats
[14] = N2, 30 µM, adult worms, average of 3 biological repeats
[15] = N2, 60 µM, adult worms, average of 3 biological repeats
[16] = N2 series 1 (run with e245, md414), 15 µM
[17] = N2 series 1 (run with e245, md414), 15 µM, single Bio Rep
[18] = N2 series 1 (run with e245, md414), 30 µM
[19] = N2 series 1 (run with e245, md414), 30 µM, single Bio Rep
[20] = N2 series 1 (run with e245, md414), 60 µM
[21] = N2 series 1 (run with e245, md414), 60 µM, single Bio Rep
[22] = N2 series 2 (run with e327), 15 µM
[23] = N2 series 2 (run with e327), 15 µM, single Bio Rep
[24] = N2 series 2 (run with e327), 30 µM
[25] = N2 series 2 (run with e327), 30 µM, single Bio Rep
[26] = N2 series 2 (run with e327), 60 µM
[27] = N2 series 2 (run with e327), 60 µM, single Bio Rep

With `O=[N+]([O-])c1ccc(N2CCN(CC3CCCCC3)CC2)cc1` [Nemacol-1] the “atypical locomotion (number of animals)” value (3.75uM, one hour) was 9 and 12 and 2 and 3 and 11, the “coiled (number of animals)” value (3.75uM, one hour) was 0 and 2 and 1 and the “no phene (number of animals)” value (3.75uM, one hour) was 11 and 8 and 16 and 17 and 9. The “paralyzed (number of animals)” value (3.75uM, one hour) was 0, the “Fraction Coiled” value [1] was 0.15 and the “Fraction Jerky-Unc” value [1] was 0.69. The “Fraction No Phenotype” value [1] was 0.15, the “Fraction Parayzed” value [1] was 0.0185 and the “Fraction Coiled” value [2] was 0.17. For the same compound, the “Fraction Jerky-Unc” value [2] was 0.6111, the “Fraction No Phenotype” value [2] was 0.22 and the “Fraction Parayzed” value [2] was 0. The “Fraction Coiled” value [3] was 0.11, the “Fraction Jerky-Unc” value [3] was 0.8333 and the “Fraction No Phenotype” value [3] was 0.0556. The “Fraction Parayzed” value [3] was 0, the “Fraction Coiled” value [4] was 0.17 and the “Fraction Jerky-Unc” value [4] was 0.6111. The “Fraction No Phenotype” value [4] was 0.17, the “Fraction Parayzed” value [4] was 0.05556 and the “any phene, mean % fraction of young adults exhibiting any phenotype (coiled, jerky-Unc or paralyzed)” value (15uM, one hour, mean of three biological replicates) was 91.0317%. The “atypical locomotion (number of animals)” value (15uM, one hour) was 6 and 4 and 7 and 5 and 12 and 16, the “coiled (number of animals)” value (15uM, one hour) was 5 and 8 and 13 and 4 and the “no phene (number of animals)” value (15uM, one hour) was 0 and 5 and 2 and 4. For the same compound, the “paralyzed (number of animals)” value (15uM, one hour) was 9 and 11 and 1 and 0, the “Fraction Coiled” value [5] was 0.46 and the “Fraction Jerky-Unc” value [5] was 0.31. For the same compound, the “Fraction No Phenotype” value [5] was 0.00, the “Fraction Parayzed” value [5] was 0.23 and the “Fraction Coiled” value [6] was 0.61. For the same compound, the “Fraction Jerky-Unc” value [6] was 0.2222, the “Fraction No Phenotype” value [6] was 0.00 and the “Fraction Parayzed” value [6] was 0.1667. The “Fraction Coiled” value [7] was 0.41, the “Fraction Jerky-Unc” value [7] was 0.3529 and the “Fraction No Phenotype” value [7] was 0.00. For the same compound, the “Fraction Parayzed” value [7] was 0.2353, the “Fraction Coiled” value [8] was 0.35 and the “Fraction Jerky-Unc” value [8] was 0.3529. The “Fraction No Phenotype” value [8] was 0.00, the “Fraction Parayzed” value [8] was 0.2941 and the “Fraction Coiled” value [9] was 0.60. The “Fraction Jerky-Unc” value [9] was 0.10, the “Fraction No Phenotype” value [9] was 0.00 and the “Fraction Parayzed” value [9] was 0.29. For the same compound, the “Fraction Coiled” value [10] was 0.69, the “Fraction Jerky-Unc” value [10] was 0.125 and the “Fraction No Phenotype” value [10] was 0.00. The “Fraction Parayzed” value [10] was 0.1875, the “Fraction Coiled” value [11] was 0.56 and the “Fraction Jerky-Unc” value [11] was 0.1111. The “Fraction No Phenotype” value [11] was 0.00, the “Fraction Parayzed” value [11] was 0.3333 and the “Fraction Coiled” value [12] was 0.57. The “Fraction Jerky-Unc” value [12] was 0.07143, the “Fraction No Phenotype” value [12] was 0.00 and the “Fraction Parayzed” value [12] was 0.3571. The “atypical locomotion (number of animals)” value (60uM, one hour) was 2 and 1 and 4, the “coiled (number of animals)” value (60uM, one hour) was 7 and 11 and 17 and 19 and 12 and 8 and the “no phene (number of animals)” value (60uM, one hour) was 0. The “paralyzed (number of animals)” value (60uM, one hour) was 11 and 7 and 1 and 0 and 6 and 8, the “motor defects after 24 h on compound” value (24 h) was “no longer have obvious motor defects” and the EC50 (Caenorhabditis elegans, 1 h, read-out: C. elegans - motor disruption EC50) was 7.1 µM. For the same compound, the “Fraction Coiled” value [13] was 0.15, the “Fraction Jerky-Unc” value [13] was 0.69 and the “Fraction No Phenotype” value [13] was 0.15. The “Fraction Parayzed” value [13] was 0.0185, the “Fraction Coiled” value [14] was 0.46 and the “Fraction Jerky-Unc” value [14] was 0.31. For the same compound, the “Fraction No Phenotype” value [14] was 0.00, the “Fraction Parayzed” value [14] was 0.23 and the “Fraction Coiled” value [15] was 0.60. The “Fraction Jerky-Unc” value [15] was 0.10, the “Fraction No Phenotype” value [15] was 0.00 and the “Fraction Parayzed” value [15] was 0.29. The “rep 1 atypical locomotion” value (conc 3.75) was 3, the “rep 1 coiled” value (conc 3.75) was 2 and the “rep 1 no phene” value (conc 3.75) was 15. For the same compound, the “rep 1 paralyzed” value (conc 3.75) was 0, the “rep 1 atypical locomotion” value (conc 15) was 3 and the “rep 1 coiled” value (conc 15) was 4. The “rep 1 no phene” value (conc 15) was 7, the “rep 1 paralyzed” value (conc 15) was 6 and the “rep 1 atypical locomotion” value (conc 60) was 2. The “rep 1 coiled” value (conc 60) was 3, the “rep 1 no phene” value (conc 60) was 0 and the “rep 1 paralyzed” value (conc 60) was 15. For the same compound, the “Fraction Coiled, Averages of 3 biological repeats” value [16] was 0.26, the “Fraction Jerky-Unc, Averages of 3 biological repeats” value [16] was 0.67 and the “Fraction No Phenotype, Averages of 3 biological repeats” value [16] was 0.037. The “Fraction Parayzed, Averages of 3 biological repeats” value [16] was 0.037, the “C1 (loose coil) worm count” value [17] was 1 and 2 and the “C2 (tight coil) worm count” value [17] was 3 and 4. For the same compound, the “Fraction Coiled” value [17] was 0.28 and 0.22, the “Fraction Jerky-Unc” value [17] was 0.6111 and 0.7222 and 0.6667 and the “J (jerky-unc) worm count” value [17] was 13 and 11 and 12. For the same compound, the “Fraction Coiled, Averages of 3 biological repeats” value [18] was 0.59, the “Fraction Jerky-Unc, Averages of 3 biological repeats” value [18] was 0.28 and the “Fraction No Phenotype, Averages of 3 biological repeats” value [18] was 0.00. For the same compound, the “Fraction Parayzed, Averages of 3 biological repeats” value [18] was 0.13, the “C1 (loose coil) worm count” value [19] was 5 and the “C2 (tight coil) worm count” value [19] was 5 and 7. The “Fraction Coiled” value [19] was 0.56 and 0.67, the “Fraction Jerky-Unc” value [19] was 0.1667 and 0.3333 and the “Fraction No Phenotype” value [19] was 0.00. The “J (jerky-unc) worm count” value [19] was 6 and 3, the “NP (no phene) worm count” value [19] was 0 and the “Fraction Coiled, Averages of 3 biological repeats” value [20] was 0.64. The “Fraction Jerky-Unc, Averages of 3 biological repeats” value [20] was 0.11, the “Fraction No Phenotype, Averages of 3 biological repeats” value [20] was 0.00 and the “Fraction Parayzed, Averages of 3 biological repeats” value [20] was 0.25. For the same compound, the “C1 (loose coil) worm count” value [21] was 3 and 4, the “C2 (tight coil) worm count” value [21] was 6 and 8 and the “Fraction Coiled” value [21] was 0.67 and 0.60. The “Fraction No Phenotype” value [21] was 0.00, the “NP (no phene) worm count” value [21] was 0 and the “Fraction Coiled, Averages of 3 biological repeats” value [22] was 0.20. The “Fraction Jerky-Unc, Averages of 3 biological repeats” value [22] was 0.69, the “Fraction No Phenotype, Averages of 3 biological repeats” value [22] was 0.11 and the “Fraction Parayzed, Averages of 3 biological repeats” value [22] was 0.00. The “C2 (tight coil) worm count” value [23] was 3 and 2, the “Fraction Jerky-Unc” value [23] was 0.7778 and 0.6667 and 0.6316 and the “Fraction No Phenotype” value [23] was 0.11. For the same compound, the “Fraction Parayzed” value [23] was 0, the “J (jerky-unc) worm count” value [23] was 12 and 14 and the “NP (no phene) worm count” value [23] was 2. For the same compound, the “P (paralyzed) worm count” value [23] was 0, the “Fraction Coiled, Averages of 3 biological repeats” value [24] was 0.49 and the “Fraction Jerky-Unc, Averages of 3 biological repeats” value [24] was 0.36. For the same compound, the “Fraction No Phenotype, Averages of 3 biological repeats” value [24] was 0.00, the “Fraction Parayzed, Averages of 3 biological repeats” value [24] was 0.15 and the “C2 (tight coil) worm count” value [25] was 4 and 7 and 6. The “Fraction No Phenotype” value [25] was 0.00, the “NP (no phene) worm count” value [25] was 0 and the “Fraction Coiled, Averages of 3 biological repeats” value [26] was 0.57. For the same compound, the “Fraction Jerky-Unc, Averages of 3 biological repeats” value [26] was 0.11, the “Fraction No Phenotype, Averages of 3 biological repeats” value [26] was 0.00 and the “Fraction Parayzed, Averages of 3 biological repeats” value [26] was 0.32. For the same compound, the “C1 (loose coil) worm count” value [27] was 3 and 4, the “Fraction Coiled” value [27] was 0.58 and 0.41 and 0.72 and the “Fraction No Phenotype” value [27] was 0.00. The “Fraction Parayzed” value [27] was 0.3158 and 0.3529 and 0.2778, the “NP (no phene) worm count” value [27] was 0 and the “P (paralyzed) worm count” value [27] was 6 and 5. For the same compound, the “fold difference in C. elegans EC50, Vesamicol vs Nemacol-1” value (Vesamicol EC50 higher, Nemacol-1 more potent) was 5.4 fold.
